Experimental data published in the NIST ThermoML archive (doi:10.1021/acs.jced.5b00105).
Numbers after ± are expanded uncertainties.

Tests used:
[1] = xn = mol fraction of the nth substance listed; details: x2 = 0; for surface tension liquid-gas: Drop volume; for viscosity / mass density: 100 kPa, Liquid; for viscosity: Concentric cylinders viscometry; for mass density: Vibrating tube method
[2] = refractive index (Na D-line) (dimensionless); xn = mol fraction of the nth substance listed; details: 100 kPa, Liquid, x2 = 0
[3] = for surface tension liquid-gas: Drop volume; for viscosity / mass density: 100 kPa, Liquid; for viscosity: Concentric cylinders viscometry; for mass density: Vibrating tube method
[4] = refractive index (Na D-line) (dimensionless); details: 100 kPa, Liquid

CC(C)CC(C)(C)C [2,2,4-trimethylpentane] + CCCCC1CCCCC1
Details | mass density, [1] [kg/m3] | refractive index, [2] | surface tension liquid-gas, [1] [mN/m] | viscosity, [1] [mPa·s]
293.15 K | 691.91 ± 0.19 | 1.3921 ± 0.0015 | 18.94 ± 0.24 | 0.518 ± 0.083
298.15 K | 687.82 ± 0.19 | 1.3886 ± 0.0015 | 18.39 ± 0.24 | 0.493 ± 0.079
303.15 K | 683.68 ± 0.19 | 1.3876 ± 0.0015 | 17.99 ± 0.24 | 0.47 ± 0.075
308.15 K | 679.51 ± 0.19 | 1.3848 ± 0.0015 | 17.58 ± 0.23 | 0.449 ± 0.072
313.15 K | 675.32 ± 0.19 | 1.3833 ± 0.0015 | – | 0.43 ± 0.069
318.15 K | 671.05 ± 0.19 | 1.3785 ± 0.0015 | – | 0.414 ± 0.066
323.15 K | 666.8 ± 0.2 | 1.376 ± 0.0015 | – | 0.398 ± 0.064
333.15 K | 658.2 ± 0.2 | – | – | 0.371 ± 0.06
343.15 K | 649.44 ± 0.2 | – | – | 0.348 ± 0.056

CC(C)CC(C)(C)C [2,2,4-trimethylpentane] + CCC1CCCCC1
Details | mass density, [1] [kg/m3] | refractive index, [2] | surface tension liquid-gas, [1] [mN/m] | viscosity, [1] [mPa·s]
293.15 K | 691.91 ± 0.19 | 1.3921 ± 0.0015 | 18.94 ± 0.24 | 0.518 ± 0.083
298.15 K | 687.82 ± 0.19 | 1.3886 ± 0.0015 | 18.39 ± 0.24 | 0.493 ± 0.079
303.15 K | 683.68 ± 0.19 | 1.3876 ± 0.0015 | 17.99 ± 0.24 | 0.47 ± 0.075
308.15 K | 679.51 ± 0.19 | 1.3848 ± 0.0015 | 17.58 ± 0.23 | 0.449 ± 0.072
313.15 K | 675.32 ± 0.19 | 1.3833 ± 0.0015 | – | 0.43 ± 0.069
318.15 K | 671.05 ± 0.19 | 1.3785 ± 0.0015 | – | 0.414 ± 0.066
323.15 K | 666.8 ± 0.2 | 1.376 ± 0.0015 | – | 0.398 ± 0.064
333.15 K | 658.2 ± 0.2 | – | – | 0.371 ± 0.06
343.15 K | 649.44 ± 0.2 | – | – | 0.348 ± 0.056

CCC1CCCCC1 [ethylcyclohexane]
Details | mass density, [3] [kg/m3] | refractive index, [4] | surface tension liquid-gas, [3] [mN/m] | viscosity, [3] [mPa·s]
293.15 K | 787.98 ± 0.15 | 1.4337 ± 0.0015 | 25.47 ± 0.24 | 0.848 ± 0.14
298.15 K | 783.97 ± 0.15 | 1.4301 ± 0.0015 | 24.76 ± 0.24 | 0.793 ± 0.13
303.15 K | 779.93 ± 0.15 | 1.4295 ± 0.0015 | 24.55 ± 0.24 | 0.745 ± 0.12
308.15 K | 775.88 ± 0.15 | 1.4278 ± 0.0015 | 23.74 ± 0.24 | 0.702 ± 0.11
313.15 K | 771.82 ± 0.15 | 1.4259 ± 0.0015 | – | 0.663 ± 0.11
318.15 K | 767.69 ± 0.15 | 1.4204 ± 0.0015 | – | 0.628 ± 0.1
323.15 K | 763.59 ± 0.15 | 1.4187 ± 0.0015 | – | 0.597 ± 0.096
333.15 K | 755.35 ± 0.15 | – | – | 0.541 ± 0.087
343.15 K | 747.03 ± 0.16 | – | – | 0.496 ± 0.08

CCCCC1CCCCC1 [butylcyclohexane]
Details | mass density, [3] [kg/m3] | refractive index, [4] | surface tension liquid-gas, [3] [mN/m] | viscosity, [3] [mPa·s]
293.15 K | 799.37 ± 0.15 | 1.4403 ± 0.0015 | 26.81 ± 0.25 | 1.304 ± 0.21
298.15 K | 795.63 ± 0.15 | 1.4377 ± 0.0015 | 25.87 ± 0.24 | 1.199 ± 0.19
303.15 K | 791.88 ± 0.15 | 1.4355 ± 0.0015 | 25.49 ± 0.24 | 1.109 ± 0.18
308.15 K | 788.12 ± 0.15 | 1.4333 ± 0.0015 | 24.73 ± 0.24 | 1.031 ± 0.17
313.15 K | 784.35 ± 0.15 | 1.4314 ± 0.0015 | – | 0.961 ± 0.15
318.15 K | 780.49 ± 0.15 | 1.429 ± 0.0015 | – | 0.9 ± 0.14
323.15 K | 776.7 ± 0.16 | 1.4268 ± 0.0015 | – | 0.844 ± 0.14
333.15 K | 769.09 ± 0.16 | – | – | 0.749 ± 0.12
343.15 K | 761.43 ± 0.16 | – | – | 0.671 ± 0.11

CC(C)CC(C)(C)C [2,2,4-trimethylpentane]
Details | mass density, [3] [kg/m3] | refractive index, [4] | surface tension liquid-gas, [3] [mN/m] | viscosity, [3] [mPa·s]
293.15 K | 691.91 ± 0.19 | 1.3921 ± 0.0015 | 18.94 ± 0.24 | 0.518 ± 0.083
298.15 K | 687.82 ± 0.19 | 1.3886 ± 0.0015 | 18.39 ± 0.24 | 0.493 ± 0.079
303.15 K | 683.68 ± 0.19 | 1.3876 ± 0.0015 | 17.99 ± 0.24 | 0.47 ± 0.075
308.15 K | 679.51 ± 0.19 | 1.3848 ± 0.0015 | 17.58 ± 0.23 | 0.449 ± 0.072
313.15 K | 675.32 ± 0.19 | 1.3833 ± 0.0015 | – | 0.43 ± 0.069
318.15 K | 671.05 ± 0.19 | 1.3785 ± 0.0015 | – | 0.414 ± 0.066
323.15 K | 666.8 ± 0.2 | 1.376 ± 0.0015 | – | 0.398 ± 0.064
333.15 K | 658.2 ± 0.2 | – | – | 0.371 ± 0.06
343.15 K | 649.44 ± 0.2 | – | – | 0.348 ± 0.056

CC(C)CC(C)(C)C [2,2,4-trimethylpentane] + CC1CCCCC1
Details | mass density, [1] [kg/m3] | refractive index, [2] | surface tension liquid-gas, [1] [mN/m] | viscosity, [1] [mPa·s]
293.15 K | 691.91 ± 0.19 | 1.3921 ± 0.0015 | 18.94 ± 0.24 | 0.518 ± 0.083
298.15 K | 687.82 ± 0.19 | 1.3886 ± 0.0015 | 18.39 ± 0.24 | 0.493 ± 0.079
303.15 K | 683.68 ± 0.19 | 1.3876 ± 0.0015 | 17.99 ± 0.24 | 0.47 ± 0.075
308.15 K | 679.51 ± 0.19 | 1.3848 ± 0.0015 | 17.58 ± 0.23 | 0.449 ± 0.072
313.15 K | 675.32 ± 0.19 | 1.3833 ± 0.0015 | – | 0.43 ± 0.069
318.15 K | 671.05 ± 0.19 | 1.3785 ± 0.0015 | – | 0.414 ± 0.066
323.15 K | 666.8 ± 0.2 | 1.376 ± 0.0015 | – | 0.398 ± 0.064
333.15 K | 658.2 ± 0.2 | – | – | 0.371 ± 0.06
343.15 K | 649.44 ± 0.2 | – | – | 0.348 ± 0.056

CC1CCCCC1 [methylcyclohexane]
Details | mass density, [3] [kg/m3] | refractive index, [4] | surface tension liquid-gas, [3] [mN/m] | viscosity, [3] [mPa·s]
293.15 K | 769.35 ± 0.15 | 1.4232 ± 0.0015 | 23.87 ± 0.24 | 0.735 ± 0.12
298.15 K | 765.05 ± 0.15 | 1.4199 ± 0.0015 | 23.02 ± 0.24 | 0.692 ± 0.11
303.15 K | 760.71 ± 0.15 | 1.419 ± 0.0015 | 22.55 ± 0.24 | 0.651 ± 0.1
308.15 K | 756.37 ± 0.15 | 1.4168 ± 0.0015 | 22.12 ± 0.24 | 0.615 ± 0.099
313.15 K | 752 ± 0.16 | 1.415 ± 0.0015 | – | 0.58 ± 0.093
318.15 K | 747.58 ± 0.16 | 1.4102 ± 0.0015 | – | 0.549 ± 0.088
323.15 K | 743.17 ± 0.16 | 1.4078 ± 0.0015 | – | 0.522 ± 0.084
333.15 K | 734.29 ± 0.16 | – | – | 0.476 ± 0.076
343.15 K | 725.31 ± 0.16 | – | – | 0.439 ± 0.07
